{
  "source": "patent US12569577B2",
  "about": "“PSMA-targeting imaging agents” (The Cleveland Clinic Foundation, priority 2019, dated 2026)",
  "key": {"PSMA": {"molecular_target": "T1, PSMA (Homo sapiens, UniProt Q04609)", "T1 construct": "expressed in transfected cells; host or cells: PC3-PIP cells (washed membrane preparation after freeze/thaw)", "T1 sequence (Q04609 whole entry)": "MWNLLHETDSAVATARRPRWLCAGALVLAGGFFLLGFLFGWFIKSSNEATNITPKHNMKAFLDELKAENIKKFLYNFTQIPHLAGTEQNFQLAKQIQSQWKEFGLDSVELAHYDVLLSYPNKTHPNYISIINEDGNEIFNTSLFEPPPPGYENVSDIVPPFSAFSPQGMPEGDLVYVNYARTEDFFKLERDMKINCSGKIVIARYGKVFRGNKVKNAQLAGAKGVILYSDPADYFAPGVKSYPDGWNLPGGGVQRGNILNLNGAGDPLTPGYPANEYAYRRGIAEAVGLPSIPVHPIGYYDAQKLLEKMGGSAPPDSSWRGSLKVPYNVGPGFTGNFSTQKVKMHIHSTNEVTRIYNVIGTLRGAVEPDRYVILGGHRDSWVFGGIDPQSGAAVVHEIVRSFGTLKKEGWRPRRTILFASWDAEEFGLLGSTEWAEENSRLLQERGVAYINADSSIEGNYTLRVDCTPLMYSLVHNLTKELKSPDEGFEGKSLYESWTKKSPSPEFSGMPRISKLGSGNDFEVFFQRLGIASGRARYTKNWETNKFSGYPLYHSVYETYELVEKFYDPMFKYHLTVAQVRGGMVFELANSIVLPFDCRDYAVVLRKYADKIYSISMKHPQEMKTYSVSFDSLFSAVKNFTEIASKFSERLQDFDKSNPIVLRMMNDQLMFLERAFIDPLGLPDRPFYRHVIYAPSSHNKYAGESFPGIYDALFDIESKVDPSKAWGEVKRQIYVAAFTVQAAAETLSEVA", "assay": "Competitive binding assay: NAAG hydrolysis by PC3-PIP membranes, Amplex Red glutamic acid readout", "assay_type": "biochemical", "conditions": "for EC50: PC3-PIP membranes", "experimental": "PC3-PIP PSMA-expressing cells were grown to confluency, harvested in 50 mM Tris-HCl (pH 7.5) and subjected to four freeze/thaw cycles. Cell membranes were washed three times by centrifugation at 12,000g or higher. The cell membranes were diluted to 50 mg/mL in 50 mM Tris-HCl (pH 7.5) (based on wet weight of the solid after centrifugation). Binding assays were conducted in 96 well plates. Phase 1 of the assay used wells containing 100 microliters 50 mM Tris-HCl (pH 7.5) with 4 microns NAAG and 10 microns of PC3-PIP membrane, to which differing concentrations of Compound 1 was added. The 96 well plate was incubated at 37° C. for 2 h. The glutamic acid concentration was measured with the Amplex Red glutamic acid assay kit (Invitrogen-Molecular Probes) using a fluorescent plate reader (530 nm excitation, 590 nm emission). The resulting fluorescence signals were normalized, and normalized fluorescence plotted against the concentration of ligand (log (nm)) (FIG. 1). EC50 was determined according to Eq. 1 (below). [formula]"}, "prostate cancer lesions": {"system": "prostate cancer lesions", "conditions": "cited from earlier work"}, "[1]": {"conditions": "68Ga-labelled; Rousseau et al.; cited from earlier work"}},
  "note": "Where two headings read alike, the source gives them in different places. *1 amine or outer side, *2 acyl side, *3 side chain or, on linkers, in order; H or OH if unused. Where a SMILES comes first, the peptide text is derived from it. The star is where a group is joined. DOTA = O=C(O)CN1CCN(CC(=O)O)CCN(CC(=O)*)CCN(CC(=O)O)CC1; γGlu = O=C(O)[CH](CCC(=O)[*:2])N[*:1]; CO = O=C([*:1])[*:2]; Ahx = NCCCCCC(=O)O",
  "data": [
    {"smiles": "NC(=O)C(CCCCNC(=O)CN1CCN(CC(=O)O)CCN(CC(=O)O)CCN(CC(=O)O)CC1)NC(=O)C(Cc1ccc(O)cc1)NC(=O)C(CCC(=O)O)NC(=O)C(CCC(=O)O)NC(=O)C(CCC(=O)O)NC(=O)CCCCCNC(=O)CCC(NC(=O)NC(CCC(=O)O)C(=O)O)C(=O)O", "note": "(stereo not shown) [Compound 1] ({Glu-CO-γGlu-Ahx}-EEEYK(DOTA)-NH2; configuration not given here)", "values": [
      {"measurement": "EC50", "setting": "PSMA; NAAG substrate, 37° C. 2 h, FIG. 1", "value": "0.287 ± 0.064", "unit": "nM"},
      {"measurement": "Ki", "setting": "PSMA; calculated from the competitive binding assay, read-out: estimated Ki to PSMA", "value": "< 0.3", "unit": "nM"}
    ]},
    {"smiles": "O=C(O)CCC(NC(=O)NC(CCCCNC(=O)CCC(NC(=O)CCC(NC(=O)c1ccc(F)nc1)C(=O)O)C(=O)O)C(=O)O)C(=O)O", "note": "(stereo not shown) [Compound 11]", "values": [
      {"measurement": "EC50", "setting": "PSMA; FIG. 2 and FIG. 3", "value": "~0.1", "unit": "nM"}
    ]},
    {"smiles": "O=C(O)CCC(NC(=O)NC(CCCCNC(=O)CCC(NC(=O)CCC(NC(=O)C(Cc1ccc(O)cc1)NC(=O)CN1CCN(CC(=O)O)CCN(CC(=O)O)CCN(CC(=O)O)CC1)C(=O)O)C(=O)O)C(=O)O)C(=O)O", "note": "(stereo not shown) [Compound 14, E′K-E!E!Y-DOTA]", "values": [
      {"measurement": "EC50", "setting": "PSMA; FIG. 2 and FIG. 3", "value": "0.39 ± 0.02", "unit": "nM"}
    ]},
    {"smiles": "O=C(O)CCc1ccc(O)c(CN(CCN(CC(=O)O)Cc2cc(CCC(=O)NCCCCCC(=O)NCCCC[C@H](NC(=O)N[C@@H](CCC(=O)O)C(=O)O)C(=O)O)ccc2O)CC(=O)O)c1", "note": "[PSMA 11, Glu-NH—CO—NH-Lys (Ahx)-[^68Ga(HBEDCC], metal not drawn]", "values": [
      {"measurement": "(per patient) lesion detection rate", "setting": "prostate cancer lesions; PSA <2.2 ng/ml", "value": 60, "unit": "%"},
      {"measurement": "(per patient) lesion detection rate", "setting": "prostate cancer lesions; PSA >2.2 ng/ml", "value": 100, "unit": "%"},
      {"measurement": "Biodistribution Blood", "setting": "[1]", "value": "0.31% ± 0.08%"},
      {"measurement": "Biodistribution Kidney", "setting": "[1]", "value": "182% ± 33%"},
      {"measurement": "Biodistribution Liver", "setting": "[1]", "value": "0.44% ± 0.13%"},
      {"measurement": "Biodistribution Muscle", "setting": "[1]", "value": "0.54% ± 0.14%"},
      {"measurement": "Biodistribution Salivary Gland", "setting": "[1]", "value": "10.00% ± 2.52%"},
      {"measurement": "Biodistribution Spleen", "setting": "[1]", "value": "22.2% ± 7.91%"},
      {"measurement": "Biodistribution Tumor", "setting": "[1]", "value": "8.67% ± 1.97%"}
    ]}
  ]
}
